This note sets out measurements from patent publication US8592576B2, “Unsymmetrical pyrrolobenzodiazepine-dimers for treatment of proliferative diseases” (Spirogen Sarl, priority 2008, dated 2013).

Experiment [1] has as its system A2780 parental cell line. Briefly: A2780 assay, in vitro cytotoxicity (MTT). Format: cell-based. Conditions: Homo sapiens, A2780 cells, 72 hours incubation, absorbance 540 nm. The procedure: (§1) Determination of In Vitro Cytotoxicity
A2780 parental cell line was grown in Dulbecco's Modified Eagles' Media (DMEM) containing ˜10% Foetal Calf Serum (FCS) and ˜1% 200 mM L-Glutamine solution and grown in Corning Cellbind 75 cm^2 flasks.
190 μl cell suspension was added (at 1×10^4) to each well of columns 2 to 11 of a 96 well plate (Nunc 96F flat bottom TC plate). 190 μl of media was added to each well of columns 1 and 12. The media was Dulbecco's Modified Eagles' Media (DMEM) (which included ˜10% Foetal Calf Serum (FCS) and ˜1% 200 mM L-Glutamine solution).
Plates were incubated overnight at 37° C. before addition of drug if cells were adherent. 200 μM of the test compound solutions (in 100% DMSO) were serially diluted across a 96 well plate. Each resulting point was then further diluted 1/10 into sterile distilled water (SDW).
To the cell negative blanks and compound negative control wells, 10% DMSO was added at 5% v/v. Assay plates were incubated for the following durations at 37° C. in 5% CO2 in a humidified incubator for 72 hours. Following incubation, MTT solution to a final concentration of […] was added to each well. Plates were then incubated for a further 4 hours at 37° C. in 5% CO2 in a humidified incubator. […]
Plates were read at 540 nm absorbance using an Envision plate reader. Data was analysed using Microsoft Excel and GraphPad Prism and IC50 values obtained.

For experiment [2], the system named is K562 human chronic myeloid leukaemia cells. The experiment can be described thus: K562 assay, in vitro cytotoxicity (MTT). Format: cell-based. Conditions: drug incubation 1 hour or 96 hours (not specified which), dose reducing final optical density to 50% of control. The procedure:
as §1
K562 human chronic myeloid leukaemia cells were maintained in RPM1 1640 medium supplemented with 10% fetal calf serum and 2 mM glutamine at 37° C. in a humidified atmosphere containing 5% CO2 and were incubated with a specified dose of drug for 1 hour or 96 hours at 37° C. in the dark. The incubation was terminated by centrifugation (5 min, 300 g) and the cells were washed once with drug-free medium. Following the appropriate drug treatment, the cells were transferred to 96-well microtiter plates (10^4 cells per well, 8 wells per sample). Plates were then kept in the dark at 37° C. in a humidified atmosphere containing 5% CO2. The assay is based on the ability of viable cells to reduce a yellow soluble tetrazolium salt, 3-(4,5-dimethylthiazol-2-yl)-2,5-diphenyl-2H-tetrazolium bromide (MTT, Aldrich-Sigma), to an insoluble purple formazan precipitate. Following incubation of the plates for 4 days (to allow control cells to increase in number by approximately 10 fold), 20 μL of MTT solution (5 mg/mL in phosphate-buffered saline) was added to each well and the plates further incubated for 5 h. […] The optical density was then read at a wavelength of 550 nm on a Titertek Multiscan ELISA plate reader, and a dose-response curve was constructed. […]

The term IC50 denotes the concentration that inhibits the measured activity by half. Regarding `COc1ccc(C2=CN3C(=O)c4cc(OC)c(OCCCOc5cc6c(cc5OC)C(=O)N5C=C(c7ccc(N)cc7)C[C@H]5C=N6)cc4N=C[C@@H]3C2)cc1` [Compound 11, (S)-2-(4-aminophenyl)-7-methoxy-8-(3-((S)-7-methoxy-2-(4-methoxyphenyl)-5-oxo-5,11a-dihydro-1H-pyrrolo[2,1-c][1,4]benzodiazepine-8-yloxy)propoxy)-1H-pyrrolo[2,1-c][1,4]benzodiazepine-5(11aH)-one], the IC50 in experiment [1] stood at 11.7 µM.
As for `COc1ccc(C2=CN3C(=O)c4cc(OC)c(OCCCCCOc5cc6c(cc5OC)C(=O)N5C=C(c7ccc(N)cc7)C[C@H]5C=N6)cc4N=C[C@@H]3C2)cc1` [Compound 13, (S)-2-(4-aminophenyl)-7-methoxy-8-(5-((S)-7-methoxy-2-(4-methoxyphenyl)-5-oxo-5,11a-dihydro-1H-pyrrolo[2,1-c][1,4]benzodiazepine-8-yloxy)pentyloxy)-1H-pyrrolo[2,1-c][1,4]benzodiazepine-5(11aH)-one], in experiment [2], the IC50 worked out at 30 µM.
